Test results taken from patent US11213029B2 (priority 2017, dated 2022).
Entries after “also recorded” stand apart in the source; their conditions may differ. Like-named read-outs stand apart in the source and are kept apart here.

Tests used:
Type in all cases: cell-based
[1] = test system: Xanthomonas oryzae pv. oryzae (Xoo); details: biplate, paper disc on opposite side, 10 mM, 30° C., dark condition, 24 hours; FIG. 4
[2] = test system: Xanthomonas oryzae pv. oryzae (Xoo); details: 8 mm paper disc, 30° C., 24 hours; for degree of inhibition against the growth of Xoo: 10 mM or 20 mM, dark condition, FIGS. 2 and 3; for degree of inhibition against the growth of Xoo (inhibition radius): 10 mM, FIG. 1
Magnaporthe oryzae = details: 500 mM (40 μl) on disc, 1.5 cm apart, 28° C., 96 hours; FIG. 7
Xanthomonas oryzae = details: by volatility, same manner as Example 3 (10 mM); FIG. 5

| Compound | degree of inhibition against the growth of Xoo by volatility [1] | degree of inhibition against the growth of Xoo [2] | growth inhibition of Magnaporthe oryzae (Magnaporthe oryzae) | degree of inhibition against the growth of Xoo (inhibition radius) [2] | inhibitory effect against the growth of Xanthomonas oryzae compared to Xanthomonas fragariae and Xanthomonas axonopodis (Xanthomonas oryzae) | degree of inhibition against the growth of Xoo ([2]; listed as (S)-(+)-carvone) | degree of inhibition against the growth of Xoo ([2]; listed as (R)-(−)-carvone) |
| --- | --- | --- | --- | --- | --- | --- | --- |
| C=C(C)C1CCC2(C)OC2C1 (single isomer, unassigned; (-)) [(−)-limonene oxide] | did not show a strong inhibitory effect against the growth but showed a larger area for the inhibitory effect compared to those of carveol and carvone | effect of directly inhibiting the growth | effect of inhibiting the growth | – | – | – | – |
| C=C(C)[C@H]1CC=C(C)CC1 [(R)-(+)-limonene, R-(+)-limonene, reference compound] | no significant effect | – | – | – | – | – | – |
| C=C(C)[C@@H]1CC=C(C)CC1 [(S)-(−)-limonene, S-(−)-limonene, reference compound] | no significant effect | – | inhibited the growth | inhibitory effect | more specifically significant inhibitory effect against the growth of Xanthomonas oryzae | – | – |
| C=C(C)C1CC=C(C)[C@@H](O)C1 (stereo partly drawn) [L-carveol] | strong inhibitory effect | effect of directly inhibiting the growth; also recorded: particularly strong inhibitory effect | effect of inhibiting the growth | larger inhibition radius than that of limonene | more specifically significant inhibitory effect against the growth of Xanthomonas oryzae | – | – |
| C=C(C)[C@H]1CC=C(C)C(=O)C1 [S-(+)-carvone] | strong inhibitory effect | effect of directly inhibiting the growth | effect of inhibiting the growth | larger inhibition radius than that of limonene | more specifically significant inhibitory effect against the growth of Xanthomonas oryzae | particularly strong inhibitory effect | – |
| Cc1ccc(C(C)C)cc1O [carvacrol] | – | effect of directly inhibiting the growth | effect of inhibiting the growth | – | – | – | – |
| CC1=CCC(C(C)(C)O)CC1 (stereo not drawn) [α-terpineol] | – | effect of directly inhibiting the growth | effect of inhibiting the growth | – | – | – | – |
| (+)-isopulegol | – | effect of directly inhibiting the growth | effect of inhibiting the growth | – | – | – | – |
| (+)-limonene oxide | – | effect of directly inhibiting the growth | effect of inhibiting the growth | – | – | – | – |
| (S)-(−)-perillyl alcohol | – | effect of directly inhibiting the growth | effect of inhibiting the growth | – | – | – | – |
| (−)-isopulegol | – | effect of directly inhibiting the growth | effect of inhibiting the growth | – | – | – | – |
| R-(−)-carvone | strong inhibitory effect | effect of directly inhibiting the growth | effect of inhibiting the growth | – | – | – | particularly strong inhibitory effect |
